According to ChEMBL document CHEMBL4673219, “Novel 5,6-disubstituted pyrrolo[2,3-d]pyrimidine derivatives as broad spectrum antiproliferative agents: Synthesis, cell based assays, kinase profile and molecular docking study” (Bioorg Med Chem, 2018):
Several values for one entry are separate records, joined by “and”; a condition that tells them apart may be missing. Equal entries are not always repeated.

Key:
BT-549 [1] = assay: Growth inhibition of human BT-549 cells assessed as growth percentage at 10 uM incubated for 48 hrs by sulforhodamine B assay relative to control; type: functional; settings: read-out: Activity
MDA-MB-231 = assay: Growth inhibition of human MDA-MB-231/ATCC cells assessed as growth percentage at 10 uM incubated for 48 hrs by sulforhodamine B assay relative to control; type: functional; settings: read-out: Activity
U-251 = assay: Growth inhibition of human U-251 cells assessed as growth percentage at 10 uM incubated for 48 hrs by sulforhodamine B assay relative to control; type: functional; settings: read-out: Activity
SNB-75 [2] = assay: Growth inhibition of human SNB-75 cells assessed as growth percentage at 10 uM incubated for 48 hrs by sulforhodamine B assay relative to control; type: functional; settings: read-out: Activity
SF-539 = assay: Growth inhibition of human SF-539 cells assessed as growth percentage at 10 uM incubated for 48 hrs by sulforhodamine B assay relative to control; type: functional; settings: read-out: Activity
HT-29 [3] = assay: Growth inhibition of human HT-29 cells assessed as growth percentage at 10 uM incubated for 48 hrs by sulforhodamine B assay relative to control; type: functional; settings: read-out: Activity
K562 = assay: Growth inhibition of human K562 cells assessed as growth percentage at 10 uM incubated for 48 hrs by sulforhodamine B assay relative to control; type: functional; settings: read-out: Activity
[4] = target: Fibroblast growth factor receptor 1 (Homo sapiens) (UniProt P11362); assay: Inhibition of human FGFR1 at 10 uM using myelin basic protein as substrate incubated for 40 mins in presence of [gamma33P]ATP by scintillation counting method relative to control
Chain of Fibroblast growth factor receptor 1 (Homo sapiens) (P11362 22-822 limits assumed): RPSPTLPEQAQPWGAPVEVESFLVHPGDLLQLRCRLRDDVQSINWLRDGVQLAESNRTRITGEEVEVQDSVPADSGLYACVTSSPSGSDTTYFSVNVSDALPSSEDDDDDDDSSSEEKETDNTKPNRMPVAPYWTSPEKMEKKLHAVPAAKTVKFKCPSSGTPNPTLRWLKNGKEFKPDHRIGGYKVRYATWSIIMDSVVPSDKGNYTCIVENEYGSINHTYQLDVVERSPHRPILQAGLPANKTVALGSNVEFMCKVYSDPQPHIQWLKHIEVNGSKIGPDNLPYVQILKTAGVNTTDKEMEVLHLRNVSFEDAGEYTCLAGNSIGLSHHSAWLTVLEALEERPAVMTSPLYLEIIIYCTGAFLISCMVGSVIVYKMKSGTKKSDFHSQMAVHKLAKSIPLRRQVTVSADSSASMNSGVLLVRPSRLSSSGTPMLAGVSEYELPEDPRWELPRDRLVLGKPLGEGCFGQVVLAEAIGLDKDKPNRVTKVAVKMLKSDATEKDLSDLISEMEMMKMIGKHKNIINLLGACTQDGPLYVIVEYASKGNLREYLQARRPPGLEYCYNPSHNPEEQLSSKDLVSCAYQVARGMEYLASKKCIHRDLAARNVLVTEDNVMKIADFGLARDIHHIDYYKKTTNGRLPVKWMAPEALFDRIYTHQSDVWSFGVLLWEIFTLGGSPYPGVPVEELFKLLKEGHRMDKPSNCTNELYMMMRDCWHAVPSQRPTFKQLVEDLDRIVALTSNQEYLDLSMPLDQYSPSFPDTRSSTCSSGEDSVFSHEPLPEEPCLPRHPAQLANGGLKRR

CAKI-1 = assay: Growth inhibition of human CAKI-1 cells incubated for 48 hrs by sulforhodamine B assay; type: functional; settings: for CC50: read-out: LC50 (the source's name); for GI50: CAKI-1
OVCAR-3 [5] = assay: Growth inhibition of human OVCAR-3 cells incubated for 48 hrs by sulforhodamine B assay; type: functional; settings: for TGI: OVCAR-3; for CC50: OVCAR-3, read-out: LC50 (the source's name)
M14 = assay: Growth inhibition of human M14 cells incubated for 48 hrs by sulforhodamine B assay; type: functional
SNB-75 [6] = assay: Growth inhibition of human SNB-75 cells incubated for 48 hrs by sulforhodamine B assay; type: functional
HCT-116 [7] = assay: Growth inhibition of human HCT-116 cells incubated for 48 hrs by sulforhodamine B assay; type: functional; settings: for CC50: read-out: LC50 (the source's name)
COLO 205 = assay: Growth inhibition of human COLO 205 cells incubated for 48 hrs by sulforhodamine B assay; type: functional
NCI-H322M = assay: Growth inhibition of human NCI-H322M cells incubated for 48 hrs by sulforhodamine B assay; type: functional; settings: for CC50: 48 h, read-out: LC50 (the source's name)
RXF 393 [8] = assay: Growth inhibition of human RXF 393 cells assessed as growth percentage at 100 uM incubated for 48 hrs by sulforhodamine B assay relative to control; type: functional; settings: read-out: Activity
A498 = assay: Growth inhibition of human A498 cells assessed as growth percentage at 100 uM incubated for 48 hrs by sulforhodamine B assay relative to control; type: functional; settings: read-out: Activity
UACC-257 = assay: Growth inhibition of human UACC-257 cells assessed as growth percentage at 100 uM incubated for 48 hrs by sulforhodamine B assay relative to control; type: functional; settings: read-out: Activity
SNB-19 = assay: Growth inhibition of human SNB-19 cells assessed as growth percentage at 100 uM incubated for 48 hrs by sulforhodamine B assay relative to control; type: functional; settings: read-out: Activity
HCT-116 [9] = assay: Growth inhibition of human HCT-116 cells assessed as growth percentage at 100 uM incubated for 48 hrs by sulforhodamine B assay relative to control; type: functional; settings: read-out: Activity
SK-OV-3 = assay: Growth inhibition of human SK-OV-3 cells assessed as growth percentage at 1 uM incubated for 48 hrs by sulforhodamine B assay relative to control; type: functional; settings: read-out: Activity
UACC-62 = assay: Growth inhibition of human UACC-62 cells assessed as growth percentage at 1 uM incubated for 48 hrs by sulforhodamine B assay relative to control; type: functional; settings: read-out: Activity
MDA-MB-435 = assay: Growth inhibition of human MDA-MB-435 cells assessed as growth percentage at 1 uM incubated for 48 hrs by sulforhodamine B assay relative to control; type: functional; settings: read-out: Activity
SW-620 = assay: Growth inhibition of human SW-620 cells assessed as growth percentage at 1 uM incubated for 48 hrs by sulforhodamine B assay relative to control; type: functional; settings: read-out: Activity
HT-29 [10] = assay: Growth inhibition of human HT-29 cells assessed as growth percentage at 1 uM incubated for 48 hrs by sulforhodamine B assay relative to control; type: functional; settings: read-out: Activity
HCT-15 [11] = assay: Growth inhibition of human HCT-15 cells assessed as growth percentage at 1 uM incubated for 48 hrs by sulforhodamine B assay relative to control; type: functional; settings: read-out: Activity
SR = assay: Growth inhibition of human SR cells assessed as growth percentage at 1 uM incubated for 48 hrs by sulforhodamine B assay relative to control; type: functional; settings: read-out: Activity
MCF7 = assay: Growth inhibition of human MCF7 cells assessed as growth percentage at 0.1 uM incubated for 48 hrs by sulforhodamine B assay relative to control; type: functional; settings: read-out: Activity
RXF 393 [12] = assay: Growth inhibition of human RXF 393 cells assessed as growth percentage at 0.1 uM incubated for 48 hrs by sulforhodamine B assay relative to control; type: functional; settings: read-out: Activity
NCI/ADR-RES = assay: Growth inhibition of human NCI/ADR-RES cells assessed as growth percentage at 0.1 uM incubated for 48 hrs by sulforhodamine B assay relative to control; type: functional; settings: read-out: Activity
OVCAR-3 [13] = assay: Growth inhibition of human OVCAR-3 cells assessed as growth percentage at 0.1 uM incubated for 48 hrs by sulforhodamine B assay relative to control; type: functional; settings: read-out: Activity
HCT-15 [14] = assay: Growth inhibition of human HCT-15 cells assessed as growth percentage at 0.1 uM incubated for 48 hrs by sulforhodamine B assay relative to control; type: functional; settings: read-out: Activity
NCI-H23 = assay: Growth inhibition of human NCI-H23 cells assessed as growth percentage at 0.1 uM incubated for 48 hrs by sulforhodamine B assay relative to control; type: functional; settings: read-out: Activity
MOLT-4 = assay: Growth inhibition of human MOLT-4 cells assessed as growth percentage at 0.1 uM incubated for 48 hrs by sulforhodamine B assay relative to control; type: functional; settings: read-out: Activity
CCRF-CEM = assay: Growth inhibition of human CCRF-CEM cells assessed as growth percentage at 0.1 uM incubated for 48 hrs by sulforhodamine B assay relative to control; type: functional; settings: read-out: Activity
BT-549 [15] = assay: Growth inhibition of human BT-549 cells assessed as growth percentage at 0.01 uM incubated for 48 hrs by sulforhodamine B assay relative to control; type: functional; settings: read-out: Activity
NCI-H460 = assay: Growth inhibition of human NCI-H460 cells assessed as growth percentage at 0.01 uM incubated for 48 hrs by sulforhodamine B assay relative to control; type: functional; settings: read-out: Activity

Nc1nc2[nH]c(CN3CCN(c4cc(Cl)cc(Cl)c4)CC3)c(CN3CCN(c4cc(Cl)cc(Cl)c4)CC3)c2c(=O)[nH]1
growth at 10 µM (BT-549 [1]): 87% | growth at 10 µM (MDA-MB-231): 71.9% | growth at 10 µM (U-251): 36.6% | growth at 10 µM (SNB-75 [2]): 63.7% | growth at 10 µM (SF-539): 84.5% | growth at 10 µM (HT-29 [3]): 33.4% | growth at 10 µM (K562): -17.6% | inhibition [4]: -8.65% | TGI (CAKI-1; 48 h): 18000 nM and 1800 nM | CC50 (CAKI-1; 48 h): 43700 nM and 4370 nM | GI50 (CAKI-1; Homo sapiens): 5100 nM | TGI (OVCAR-3 [5]; Homo sapiens): 3380 nM | GI50 (OVCAR-3 [5]; Homo sapiens, OVCAR-3, 48 h): 1810 nM | CC50 (OVCAR-3 [5]; Homo sapiens): 6280 nM | GI50 (M14; Homo sapiens, M14, 48 h): 1830 nM | TGI (M14; Homo sapiens, M14, 48 h): 3630 nM | GI50 (SNB-75 [6]): 1420 nM | TGI (SNB-75 [6]): 2740 nM | GI50 (HCT-116 [7]; Homo sapiens, HCT-116, 48 h): 1630 nM | TGI (HCT-116 [7]; Homo sapiens, HCT-116, 48 h): 3170 nM | CC50 (HCT-116 [7]; Homo sapiens, HCT-116, 48 h): 6180 nM | GI50 (COLO 205): 1690 nM | TGI (COLO 205): 3560 nM | CC50 (NCI-H322M): 73200 nM and 7320 nM | growth at 100 µM (RXF 393 [8]): -28% | growth at 100 µM (A498): -72% | growth at 100 µM (UACC-257): -57% | growth at 100 µM (SNB-19): -16% | growth at 100 µM (HCT-116 [9]): -59% | growth at 1 µM (SK-OV-3): 102% | growth at 1 µM (UACC-62): 96% | growth at 1 µM (MDA-MB-435): 88% | growth at 1 µM (SW-620): 88% | growth at 1 µM (HT-29 [10]): 91% | growth at 1 µM (HCT-15 [11]): 94% | growth at 1 µM (SR): 67% | growth at 0.1 µM (MCF7): 90% | growth at 0.1 µM (RXF 393 [12]): 89% | growth at 0.1 µM (NCI/ADR-RES): 97% | growth at 0.1 µM (OVCAR-3 [13]): 106% | growth at 0.1 µM (HCT-15 [14]): 95% | growth at 0.1 µM (NCI-H23): 107% | growth at 0.1 µM (MOLT-4): 104% | growth at 0.1 µM (CCRF-CEM): 98% | growth at 0.01 µM (BT-549 [15]): 91% | growth at 0.01 µM (NCI-H460): 105%

CCCCCCCC(=O)Nc1nc2[nH]c(CN3CCN(Cc4cccc(F)c4)CC3)c(CN3CCN(Cc4cccc(F)c4)CC3)c2c(=O)[nH]1
growth at 10 µM (BT-549 [1]): 29% | growth at 10 µM (MDA-MB-231): -83% | growth at 10 µM (U-251): -92.7% | growth at 10 µM (SNB-75 [2]): -99.2% | growth at 10 µM (SF-539): -96.9% | growth at 10 µM (HT-29 [3]): -69.7% | growth at 10 µM (K562): -65.6% | inhibition [4]: 54.5% | GI50 (CAKI-1; Homo sapiens): 1320 nM | TGI (CAKI-1; Homo sapiens, CAKI-1, 48 h): 2610 nM | CC50 (CAKI-1; Homo sapiens, CAKI-1, 48 h): 5180 nM | GI50 (OVCAR-3 [5]; 48 h): 780 nM | TGI (OVCAR-3 [5]; Homo sapiens): 2170 nM | GI50 (OVCAR-3 [5]; Homo sapiens, OVCAR-3, 48 h): 781 nM | CC50 (OVCAR-3 [5]; Homo sapiens): 5280 nM | GI50 (M14; 48 h): 210 nM | TGI (M14; 48 h): 470 nM | LC50 (50% lethal concentration) (M14; Homo sapiens, M14): 1240 nM | GI50 (M14; Homo sapiens, M14, 48 h): 205 nM | TGI (M14; Homo sapiens, M14, 48 h): 466 nM | GI50 (SNB-75 [6]): 1340 nM | LC50 (lethal concentration, 50% cell kill) (SNB-75 [6]): 5280 nM | TGI (SNB-75 [6]): 2660 nM | GI50 (HCT-116 [7]; 48 h): 170 nM | TGI (HCT-116 [7]; 48 h): 320 nM | CC50 (HCT-116 [7]; 48 h): 600 nM | GI50 (HCT-116 [7]; Homo sapiens, HCT-116, 48 h): 171 nM | TGI (HCT-116 [7]; Homo sapiens, HCT-116, 48 h): 321 nM | CC50 (HCT-116 [7]; Homo sapiens, HCT-116, 48 h): 601 nM | GI50 (COLO 205): 1400 nM | TGI (COLO 205): 2820 nM | CC50 (COLO 205; read-out: LC50 (the source's name)): 5680 nM | GI50 (NCI-H322M; Homo sapiens, NCI-H322M): 1460 nM | TGI (NCI-H322M; Homo sapiens, NCI-H322M): 2920 nM | CC50 (NCI-H322M; Homo sapiens, NCI-H322M): 5830 nM | growth at 100 µM (RXF 393 [8]): -95% | growth at 100 µM (A498): -98% | growth at 100 µM (UACC-257): -91% | growth at 100 µM (SNB-19): -83% | growth at 100 µM (HCT-116 [9]): -69% | growth at 1 µM (SK-OV-3): 107% | growth at 1 µM (UACC-62): 92% | growth at 1 µM (MDA-MB-435): 10% | growth at 1 µM (SW-620): -72% | growth at 1 µM (HT-29 [10]): -26% | growth at 1 µM (HCT-15 [11]): 1% | growth at 1 µM (SR): -31% | growth at 0.1 µM (MCF7): 87% | growth at 0.1 µM (RXF 393 [12]): 100% | growth at 0.1 µM (NCI/ADR-RES): 95% | growth at 0.1 µM (OVCAR-3 [13]): 102% | growth at 0.1 µM (HCT-15 [14]): 94% | growth at 0.1 µM (NCI-H23): 100% | growth at 0.1 µM (MOLT-4): 95% | growth at 0.1 µM (CCRF-CEM): 94% | growth at 0.01 µM (BT-549 [15]): 110% | growth at 0.01 µM (NCI-H460): 94%
